Measured values: patent US20060287319A1, “Anti-viral compositions comprising heterocyclic substituted phenyl furans and related compounds” (priority 2005, published 2006)
Like-named read-outs stand apart in the source and are kept apart here.

Tests used:
[1] = tested on: MT-2 cells
Experimental: Detection of in vitro cytotoxicity. The in vitro cytotoxicity of compounds for MT-2 cells was measured by a colorimetric method using XTT tetrazolium dye as previously described (21). Briefly, 100 μl of a compound at a graded concentration was added to equal volume of cells (5×10^5/ml) in a well of 96-well plates. After incubation at 37° C. for 4 days, XTT (1 mg/ml; […]; PolySciences, Inc., Warrington, Pa.) was added. Four hours later, the soluble intracellular formazan was quantitated colorimetrically at 450 nm with a reference at 570 nm.

[2] = tested on: HIV-1 IIIB; details: for EC50: read-out: EC50 (μM) (M ± SD) for inhibition of p24, HIV-1 IIIB, MT-2 cells
Experimental: Assessment of anti-HIV-1 infectivity. The inhibitory activity of compounds on infection by laboratory-adapted HIV-1 strains was determined as previously described (34). […] For the time-of-addition assay, compounds were added at various time post-infection. Then the culture supernatants were removed and fresh media were added. On the fourth day post-infection, 100 μl of culture supernatants were collected from each well, mixed with equal volumes of 5% Triton X-100 and assayed for p24 antigen, which was quantitated by ELISA (23). Briefly, the wells of polystyrene plates (Immulon 1B, Dynex Technology, Chantilly, Va.) were coated with HIV immunoglobulin (HIVIG), which was prepared from plasma of HIV-seropositive donors with high neutralizing titers against HIV-1IIIB as previously described (36) in 0.085 M carbonate-bicarbonate buffer (pH 9.6) at 4° C. overnight, followed by washes with PBS-T buffer (0.01M PBS containing 0.05% Tween-20) and blocking with PBS containing 1% dry fat-free milk (Bio-Rad Inc., Hercules, Calif.). Virus lysates were added to the wells and incubated at 37° C. for 1 h. […] Reactions were terminated by addition of 1N H2SO4. […] Recombinant protein p24 (US Biological, Swampscott, Mass.) was included for establishing standard dose response curve.

[3] = tested on: HIV-1 IIIB; test: HIV-1-mediated cytopathic effect (CPE); assay type: cell-based; details: read-out: EC50 (μM) (M ± SD) for inhibition of CPE
From the text: We thus purchased these compounds and tested their inhibitory activity on: 1) HIV-1 replication (p24 production); 2) HIV-1-mediated cytopathic effect (CPE); and 3) HIV-1 Env-induced cell-cell fusion; and their cytotoxicity to MT-2 cells.

[4] = tested on: HIV-1IIIB infected H9 cells (H9/HIV-1IIIB) and MT-2 cells; test: HIV-1 mediated cell-cell fusion (dye transfer assay); assay type: cell-based; details: H9/HIV-1IIIB with MT-2 cells; read-out: EC50 (μM) (M ± SD) for inhibition of Cell fusion
Experimental: Inhibition of cell-cell fusion. A dye transfer assay was used for detection of HIV-1 mediated cell fusion as previously described (11,25,26). H9/HIV-1IIIB cells were labeled with a fluorescent reagent, Calcein-AM (Molecular Probes, Inc., Eugene, Oreg.) and then incubated with MT-2 cells (ratio=1:5) in 96-well plates at 37° C. for 2 hrs in the presence or absence of compounds tested. The fused and unfused Cacein-labeled HIV-1-infected cells were counted under an inverted fluorescence microscope (Zeiss, Germany) with an eyepiece micrometer disc. The percentage of inhibition of cell fusion and the IC50 values were calculated as previously described (11).

[5] = read-out: Cytotoxicity CC50 (μM) (M ± SD), MT-2 cells

SMILES	EC50 [2]	EC50 [3]	EC50 [4]	CC50 [1, 5]	SI (CC50/EC50) ([2]; selectivity index)	CC50 [1]	SI (CC50/EC50) [2]
O=C(O)c1cc(-c2ccc(/C=C3\SC(=O)N(c4cccc(Cl)c4)C3=O)o2)ccc1Cl [NB139]	> 100 µM	> 100 µM	> 100 µM	239 ± 14.7 µM	–	–	–
O=C(O)c1cc(-c2ccc(/C=C3\SC(=O)N(c4ccc(Cl)cc4)C3=O)o2)ccc1Cl [NB140]	12.1 ± 2.73 µM	63.4 ± 1.28 µM	> 100 µM	126 ± 19.2 µM	10.41	–	–
Cc1ccc(N2C(=O)/C(=C/c3ccc(-c4cccc(C(=O)O)c4)o3)SC2=S)c(C)c1 [NB146]	0.299 ± 0.046 µM	1.77 ± 0.368 µM	1.08 µM	33.8 ± 4.44 µM	103.15	–	–
O=C(O)c1cccc(-c2ccc(/C=C3\SC(=S)N(c4cccc(F)c4)C3=O)o2)c1 [NB147]	10.4 ± 0.84 µM	> 100 µM	> 100 µM	92.3 ± 5.62 µM	8.85	–	–
COc1ccccc1N1C(=O)/C(=C/c2ccc(-c3cccc(C(=O)O)c3)o2)SC1=S [NB148]	2.65 µM	–	34.9 µM	–	–	> 368 µM	>266.67
Cc1cccc(N2C(=O)/C(=C/c3ccc(-c4cccc(C(=O)O)c4)o3)SC2=S)c1 [NB150]	0.308 ± 0.047 µM	0.403 ± 0.119 µM	0.56 ± 0.05 µM	38.7 ± 5.85 µM	125.69	–	–
CN1C(=O)/C(=C/c2ccc(-c3cccc(C(=O)O)c3)o2)SC1=S [NB151]	0.667 ± 0.174 µM	3.86 ± 0.58 µM	43.7 µM	–	–	125 ± 14.7 µM	187.17
COc1ccc(N2C(=O)/C(=C/c3ccc(-c4cccc(C(=O)O)c4)o3)SC2=S)cc1 [NB156]	0.779 ± 0.092 µM	3.16 ± 1.35 µM	2.66 µM	> 399 µM	>470.59	–	–
O=C(O)c1cccc(-c2ccc(/C=C3\SC(=O)N(c4ccccc4)C3=O)o2)c1 [NB158]	> 100 µM	> 100 µM	> 100 µM	> 102 µM	–	–	–
O=C(O)c1cccc(-c2ccc(/C=C3\SC(=O)N(c4ccc(Cl)cc4)C3=O)o2)c1 [NB160]	> 100 µM	> 100 µM	> 100 µM	> 376 µM	–	–	–
O=C(O)CN1C(=O)/C(=C/c2ccc(-c3cccc(C(=O)O)c3)o2)SC1=S [NB180]	> 100 µM	> 100 µM	> 100 µM	–	–	> 411 µM	–
O=C(O)c1cccc(-c2ccc(/C=C3\SC(=S)N(C4CCCCC4)C3=O)o2)c1 [NB181]	0.218 ± 0.024 µM	0.605 ± 0.194 µM	> 100 µM	> 387 µM	>1777.78	–	–
O=C(O)c1cccc(-c2ccc(/C=C3\SC(=S)N(Cc4ccccc4)C3=O)o2)c1 [NB182]	0.83 ± 0.024 µM	2.25 ± 1.14 µM	1.68 ± 0.142 µM	–	–	–	–
C=CCN1C(=O)/C(=C/c2ccc(-c3cccc(C(=O)O)c3)o2)SC1=S [NB183]	0.323 ± 0.081 µM	0.753 ± 0.081 µM	16.8 ± 0.457 µM	–	–	174 ± 16.2 µM	537.83
O=C1NC(=S)S/C1=C\c1ccc(-c2cccc(C(=O)O)c2)o1 [NB184]	> 100 µM	> 100 µM	> 100 µM	–	–	> 483 µM	>28.93
O=C1NC(=S)S/C1=C\c1ccc(-c2ccc(Cl)c(C(=O)O)c2)o1 [NB185]	76.9 ± 3.52 µM	50.3 ± 4.09 µM	> 100 µM	–	–	> 437 µM	>5.68
Cc1ccc(C(=O)O)cc1-c1ccc(/C=C2\SC(=O)N(c3ccccc3)C2=O)o1 [NB187]	> 100 µM	> 100 µM	> 100 µM	363 ± 40.1 µM	–	–	–
O=C(O)c1cc(-c2ccc(/C=C3\SC(=O)N(Cc4ccc(F)cc4)C3=O)o2)ccc1Cl [NB191]	> 100 µM	> 100 µM	> 100 µM	> 349 µM	–	–	–
O=C(O)c1cc(-c2ccc(/C=C3\SC(=O)N(Cc4ccccc4)C3=O)o2)ccc1Cl [NB192]	> 100 µM	> 100 µM	> 100 µM	–	–	–	–
Cc1c(C(=O)O)cccc1-c1ccc(/C=C2\SC(=O)N(CC(=O)Nc3ccccc3F)C2=O)o1 [NB195]	> 100 µM	> 100 µM	> 100 µM	154 ± 6.93 µM	–	–	–
O=C(O)c1cc(-c2ccc(/C=C3\SC(=O)N(CC(=O)N4CCOCC4)C3=O)o2)ccc1Cl [NB202]	> 100 µM	> 100 µM	> 100 µM	> 336 µM	–	–	–
O=C(O)c1cc(-c2ccc(/C=C3\SC(=S)N(Cc4ccccc4)C3=O)o2)ccc1Cl [NB217]	0.767 ± 0.219 µM	2.37 ± 0.657 µM	2.3 ± 0.131 µM	–	–	–	–
O=C(O)c1cccc(-c2ccc(/C=C3\SC(=S)N(Cc4ccco4)C3=O)o2)c1 [NB238]	–	–	–	–	–	–	>14.57

Second part, led by results:

EC50 [2]	EC50 [3]	EC50 [4]	SMILES	CC50 [1, 5]	SI (CC50/EC50) ([2]; selectivity index)	CC50 [1]	SI (CC50/EC50) [2]
> 100 µM	> 100 µM	> 100 µM	CN1C(=O)S/C(=C\c2ccc(-c3cc(C(=O)O)ccc3Cl)o2)C1=O [NB186]	–	–	> 440 µM	–
> 100 µM	> 100 µM	> 100 µM	Cc1ccc(C(=O)O)cc1-c1ccc(/C=C2\SC(=S)NC2=O)o1 [NB188]	–	–	197 ± 13 µM	–
0.984 ± 0.155 µM	2.28 ± 0.389 µM	4.33 ± 0.078 µM	C=CCN1C(=O)/C(=C/c2ccc(-c3cccc(C(=O)O)c3C)o2)SC1=S [NB189]	–	–	> 414 µM	>421.05
> 100 µM	> 100 µM	> 100 µM	O=C1NC(=S)S/C1=C\c1ccc(-c2cc(C(=O)O)ccc2Cl)o1 [NB190]	–	–	> 437 µM	–
> 100 µM	> 100 µM	> 100 µM	CC(C)CN1C(=O)S/C(=C\c2ccc(-c3ccc(Cl)c(C(=O)O)c3)o2)C1=O [NB193]	–	–	> 394 µM	–
> 100 µM	> 100 µM	> 100 µM	Cc1ccc(NC(=O)CN2C(=O)S/C(=C\c3ccc(-c4cccc(C(=O)O)c4)o3)C2=O)cc1 [NB194]	–	–	207 ± 4.4 µM	–
> 100 µM	> 100 µM	> 100 µM	Cc1ccc(NC(=O)CN2C(=O)S/C(=C\c3ccc(-c4cccc(C(=O)O)c4C)o3)C2=O)cc1 [NB196]	–	–	> 336 µM	–
> 100 µM	> 100 µM	> 100 µM	Cc1ccc(NC(=O)CN2C(=O)S/C(=C\c3ccc(-c4cc(C(=O)O)ccc4Cl)o3)C2=O)cc1 [NB197]	–	–	> 341 µM	–
> 100 µM	> 100 µM	> 100 µM	Cc1cccc(NC(=O)CN2C(=O)S/C(=C\c3ccc(-c4cc(C(=O)O)ccc4Cl)o3)C2=O)c1 [NB198]	–	–	> 322 µM	–
> 100 µM	> 100 µM	> 100 µM	Cc1ccc(NC(=O)CN2C(=O)S/C(=C\c3ccc(-c4ccc(Cl)c(C(=O)O)c4)o3)C2=O)cc1 [NB199]	–	–	> 322 µM	–
> 100 µM	> 100 µM	> 100 µM	C#CCN1C(=O)S/C(=C\c2ccc(-c3ccc(Cl)c(C(=O)O)c3)o2)C1=O [NB200]	–	–	> 413 µM	–
10.7 ± 3.09 µM	> 100 µM	33.2 ± 0.566 µM	COCCN1C(=O)/C(=C/c2ccc(-c3ccc(Cl)c(C(=O)O)c3)o2)SC1=S [NB201]	–	–	118 ± 8.54 µM	11.08
> 100 µM	> 100 µM	> 100 µM	C#CCN1C(=O)S/C(=C\c2ccc(-c3cc(C(=O)O)ccc3Cl)o2)C1=O [NB203]	–	–	> 413 µM	–
> 100 µM	> 100 µM	> 100 µM	CCOC(=O)CN1C(=O)S/C(=C\c2ccc(-c3ccc(Cl)c(C(=O)O)c3)o2)C1=O [NB204]	–	–	> 366 µM	–
> 100 µM	> 100 µM	> 100 µM	C#CCN1C(=O)S/C(=C\c2ccc(-c3cc(C(=O)O)ccc3C)o2)C1=O [NB205]	–	–	> 435 µM	–
> 100 µM	> 100 µM	–	C=CCN1C(=O)/C(=C/c2ccc(-c3cc(C(=O)O)cc(C(=O)O)c3)o2)SC1=S [NB225]	–	–	> 386 µM	–
